Values after ≈ are worked out from the molar mass of the structure shown.
Tests used:
[1] = system: Candida albicans; assay: Antifungal activity against Candida albicans ATCC 10231 after 24 to 48 hrs by broth microdilution method; type: functional
[2] = system: Escherichia coli; assay: Antibacterial activity against Escherichia coli ATCC 25922 after 24 hrs by broth microdilution method; type: functional; details: ATCC 25922, 24 h
[3] = system: Enterococcus faecalis; assay: Antibacterial activity against Enterococcus faecalis ATCC 29212 after 24 hrs by broth microdilution method; type: functional; details: ATCC 29212, 24 h
[4] = system: Staphylococcus aureus; assay: Antibacterial activity against Staphylococcus aureus ATCC 29213 after 24 hrs by broth microdilution method; type: functional; details: ATCC 29213, 24 h
[5] = system: Pichia kudriavzevii; assay: Antifungal activity against Candida krusei ATCC 6258 after 24 to 48 hrs by broth microdilution method; type: functional
[6] = system: Candida parapsilosis; assay: Antifungal activity against Candida parapsilosis ATCC 22019 after 24 to 48 hrs by broth microdilution method; type: functional; details: Lodderomyces parapsilosis
[7] = system: Candida tropicalis; assay: Antifungal activity against Candida tropicalis ATCC 750 after 24 to 48 hrs by broth microdilution method; type: functional
[8] = system: Pichia kudriavzevii; assay: Ratio of fluconazole MIC to compound MIC for Candida krusei ATCC 6258; type: functional
[9] = system: THP-1; assay: Cytotoxicity against human THP1 cells assessed as release of lactate dehydrogenase at 4 times MIC after 24 hrs; type: cell-based; details: thp-1, 24 h
[10] = system: THP-1; assay: Cytotoxicity against human THP1 cells at 4 times MIC after 24 hrs by trypan blue exclusion assay; type: cell-based; details: thp-1, 24 h
[11] = system: THP-1; assay: Cytotoxicity against human THP1 cells assessed as release of lactate dehydrogenase at 10 times MIC after 24 hrs; type: cell-based; details: thp-1, 24 h

Compound	MIC [1] [µg/mL]	MIC [2] [µg/mL]	MIC [3] [µg/mL]	MIC [4] [µg/mL]	MIC [5] [µg/mL]	MIC [6] [µg/mL]	MIC [7] [µg/mL]	Ratio [8]	Activity [9]	Activity [10]	Activity [11]
Nc1nc2ccc(Oc3ccccc3)cc2s1	128 (≈ 528 µM)	> 512	> 512	> 512	32 (≈ 132 µM)	16 (≈ 66 µM)	32 (≈ 132 µM)	–	–	–	–
Nc1nc2ccc(OCCc3ccccc3)cc2s1	8 (≈ 29.6 µM)	> 512	128 (≈ 473 µM)	> 512	16 (≈ 59.2 µM)	16 (≈ 59.2 µM)	32 (≈ 118 µM)	2	–	–	–
Nc1nc2ccc(OCCCc3ccccc3)cc2s1	32 (≈ 113 µM)	> 512	128 (≈ 450 µM)	512 (≈ 1800 µM)	16 (≈ 56.3 µM)	16 (≈ 56.3 µM)	16 (≈ 56.3 µM)	2	–	–	–
Nc1nc2ccc(OCCCCc3ccccc3)cc2s1	512 (≈ 1720 µM)	> 512	256 (≈ 858 µM)	512 (≈ 1720 µM)	> 512	128 (≈ 429 µM)	512 (≈ 1720 µM)	–	–	–	–
Nc1nc2ccc(COc3ccccc3)cc2s1	32 (≈ 125 µM)	> 512	128 (≈ 499 µM)	256 (≈ 999 µM)	64 (≈ 250 µM)	16 (≈ 62.4 µM)	16 (≈ 62.4 µM)	–	–	–	–
Nc1nc2ccc(OCc3ccc(Cl)cc3)cc2s1	4 (≈ 13.8 µM)	> 512	256 (≈ 880 µM)	256 (≈ 880 µM)	64 (≈ 220 µM)	8 (≈ 27.5 µM)	4 (≈ 13.8 µM)	–	Toxic	Toxic	–
Nc1nc2ccc(Oc3ccc(Cl)cc3)cc2s1	8 (≈ 28.9 µM)	> 512	512 (≈ 1850 µM)	512 (≈ 1850 µM)	32 (≈ 116 µM)	4 (≈ 14.5 µM)	8 (≈ 28.9 µM)	–	–	–	Non-toxic
Nc1nc2ccc(OCc3ccccc3)cc2s1	8 (≈ 31.2 µM)	> 512	> 512	> 512	64 (≈ 250 µM)	8 (≈ 31.2 µM)	8 (≈ 31.2 µM)	–	–	–	–
Nc1nc2ccc(C(F)(F)F)cc2s1	16 (≈ 73.3 µM)	> 512	256 (≈ 1170 µM)	256 (≈ 1170 µM)	64 (≈ 293 µM)	64 (≈ 293 µM)	64 (≈ 293 µM)	–	–	–	–
CCOc1ccc2nc(N)sc2c1	128 (≈ 659 µM)	> 512	512 (≈ 2640 µM)	512 (≈ 2640 µM)	256 (≈ 1320 µM)	128 (≈ 659 µM)	128 (≈ 659 µM)	–	–	–	–
COc1ccc2nc(N)sc2c1	256 (≈ 1420 µM)	> 512	128 (≈ 710 µM)	128 (≈ 710 µM)	512 (≈ 2840 µM)	256 (≈ 1420 µM)	256 (≈ 1420 µM)	–	–	–	–
OC(Cn1cncn1)(Cn1cncn1)c1ccc(F)cc1F [FLUCONAZOLE]	2 (≈ 6.53 µM)	–	–	–	32 (≈ 104 µM)	2 (≈ 6.53 µM)	4 (≈ 13.1 µM)	–	–	–	–
CCn1cc(C(=O)O)c(=O)c2cc(F)c(N3CCNCC3)cc21 [NORFLOXACIN]	–	0.03 (≈ 0.0939 µM)	4 (≈ 12.5 µM)	0.5 (≈ 1.57 µM)	–	–	–	–	–	–	–
Nc1nc2ccc(OC(F)(F)F)cc2s1 [RILUZOLE]	64 (≈ 273 µM)	512 (≈ 2190 µM)	512 (≈ 2190 µM)	256 (≈ 1090 µM)	128 (≈ 547 µM)	64 (≈ 273 µM)	128 (≈ 547 µM)	–	–	–	–
